Patent US9695155B2, “Herbicidal substituted pyrimidinyloxy benzene compounds” (E. I. DU PONT DE NEMOURS AND COMPANY, priority 2013, dated 2017)

What was measured:
rice = experiment: Test B flooded paddy test; assay type: in vivo, Oryza sativa; settings: Oryza sativa; Flood, 250 g ai/ha; 0 to 100 scale where 0 is no effect and 100 is complete control; read-out: Plant response rating, Rice
Outline: (§1)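 Visual ratings on a 0 to 100 scale, where 100 means complete control, compared treated plants with controls after 13 to 15 days in a greenhouse. Treatment went into paddy water 3 cm deep over the soil, applied to plants at the 2-leaf stage.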

large (Lg) crabgrass [1] = experiment: Test C preemergence; assay type: in vivo, Digitaria sanguinalis; settings: Digitaria sanguinalis, pre-emergence
Outline: (§2)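 Greenhouse herbicide screen. Pre: seeded loam/sand, sprayed at planting. Post: 1–4 leaf plants (2–18 cm) in peat-based mix. Formulation: solvent mixture + surfactant, non-phytotoxic. Readout: visual % control vs untreated, 13–15 d; dash = not tested.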

barnyardgrass [2] = experiment: Test A postemergence; assay type: in vivo, Echinochloa crus-galli; settings: Echinochloa crus-galli, post-emergence, 240 h, 0 to 100 scale where 0 is no effect and 100 is complete control
Outline: (§3)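 Compounds in non-phytotoxic solvent with surfactant applied as soil spray preemergence, or postemergence to plants 2-10 cm at one- to two-leaf stage, in loam/sand. After approximately 10 days in greenhouse, injury rated visually versus untreated controls, 0 (no effect) to 100 (complete control).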

corn = experiment: Test A postemergence; assay type: in vivo, Zea mays; settings: Zea mays, post-emergence, 240 h, 0 to 100 scale where 0 is no effect and 100 is complete control
Outline: as §3

lambsquarters = experiment: Test C postemergence; assay type: in vivo, Chenopodium album
Outline: as §2

barnyardgrass [3] = experiment: Test A preemergence; assay type: in vivo, Echinochloa crus-galli; settings: Echinochloa crus-galli, pre-emergence, 240 h, 0 to 100 scale where 0 is no effect and 100 is complete control
Outline: as §3

waterhemp = experiment: Test C postemergence; assay type: in vivo, Amaranthus rudis
Outline: as §2

galium = experiment: Test C preemergence; assay type: in vivo, Galium aparine; settings: Galium, pre-emergence
Outline: as §2

velvetleaf [4] = experiment: Test C postemergence; assay type: in vivo, Abutilon theophrasti
Outline: as §2

large (Lg) crabgrass [5] = experiment: Test C postemergence; assay type: in vivo, Digitaria sanguinalis; settings: Digitaria sanguinalis, post-emergence
Outline: as §2

sedge, umbrella = experiment: Test B flooded paddy test; assay type: in vivo, Cyperus difformis; settings: Cyperus difformis, Flood, 250 g ai/ha; 0 to 100 scale where 0 is no effect and 100 is complete control; read-out: Plant response rating, Sedge, Umbrella
Outline: as §1

johnsongrass = experiment: Test C preemergence; assay type: in vivo, Sorghum halepense; settings: Sorghum halepense, pre-emergence, preemergence, read-out: Johnsongrass plant response rating
Outline: as §2

soybean = experiment: Test C postemergence; assay type: in vivo, Glycine max
Outline: as §2

velvetleaf [6] = experiment: Test C preemergence; assay type: in vivo, Abutilon theophrasti; settings: Abutilon theophrasti, pre-emergence, preemergence, read-out: Velvetleaf plant response rating
Outline: as §2

oilseed rape = experiment: Test C postemergence; assay type: in vivo, Brassica napus
Outline: as §2

[7] = 31 g ai/ha, postemergence, visual rating, scale 0 to 100 (0 no effect, 100 complete control), 13 to 15 days
[8] = 16 g ai/ha, scale 0 to 100 (0 no effect, 100 complete control)
[9] = 62 g ai/ha, scale 0 (no effect) to 100 (complete control)
[10] = 125 g ai/ha, scale 0 (no effect) to 100 (complete control)

**Q.** With `FC(F)(F)c1cn(-c2ccccc2Oc2ncc(Cl)cn2)nn1` [Compound 166, 5-chloro-2-[2-[4-(trifluoromethyl)-1H-1,2,3-triazol-1-yl]phenoxy]pyrimidine] as the compound, how does the plant injury at 250 g/ha (rice) read?
**A.** 75%

**Q.** What about the pest or weed control at 16 g/ha (large (Lg) crabgrass [1]; 16 g ai/ha, preemergence, scale 0 to 100 (0 no effect, 100 complete control), read-out: Crabgrass, Large plant response rating) of the same compound?
**A.** 100%

**Q.** And the pest or weed control at 62 g/ha (large (Lg) crabgrass [1]; 62 g ai/ha, preemergence, scale 0 (no effect) to 100 (complete control), read-out: Crabgrass, Large plant response rating)?
**A.** 100%

**Q.** And the pest or weed control at 125 g/ha (large (Lg) crabgrass [1]; 125 g ai/ha, preemergence, scale 0 (no effect) to 100 (complete control), read-out: Crabgrass, Large plant response rating)?
**A.** 100%

**Q.** What about the pest or weed control at 31 g/ha (large (Lg) crabgrass [1]; Preemergence, 31 g ai/ha, scale 0 to 100, 0 no effect, 100 complete control, read-out: Plant response rating, Crabgrass, Large) of the same compound?
**A.** 100%

**Q.** What about the pest or weed control at 125 g/ha (barnyardgrass [2]; 125 g ai/ha, read-out: Barnyardgrass plant response rating) of the same compound?
**A.** 90%

**Q.** And the pest or weed control at 500 g/ha (barnyardgrass [2]; 500 g ai/ha, read-out: Plant response rating, Barnyardgrass)?
**A.** 100%

**Q.** What about the plant injury at 125 g/ha (corn; 125 g ai/ha, read-out: Corn plant response rating) of the same compound?
**A.** 50%

**Q.** What about the Corn plant response rating (crop injury, 0 = no effect, 100 = complete kill) at 500 g/ha (corn; 500 g ai/ha) of the same compound?
**A.** 60%

**Q.** What about the “Lambsquarters plant response rating” value (lambsquarters; [7]) of the same compound?
**A.** 80

**Q.** What about the pest or weed control at 16 g/ha (lambsquarters; Chenopodium album, post-emergence, 16 g ai/ha, postemergence, 0 is no effect, 100 is complete control, read-out: Plant response rating (0 to 100), Lambsquarters) of the same compound?
**A.** 40%

**Q.** And the pest or weed control at 125 g/ha (lambsquarters; Chenopodium album, post-emergence, 125 g ai/ha, postemergence, visual rating, scale 0 to 100 (0 no effect, 100 complete control), read-out: Plant response rating, Lambsquarters)?
**A.** 98%

**Q.** And the pest or weed control at 62 g/ha (lambsquarters; Chenopodium album, post-emergence, Postemergence, 62 g ai/ha, scale 0 to 100 (0 no effect, 100 complete control), read-out: Plant response rating, Lambsquarters)?
**A.** 95%

**Q.** And the pest or weed control at 125 g/ha (barnyardgrass [3]; 125 g ai/ha, read-out: Plant response rating, Barnyardgrass)?
**A.** 90%

**Q.** And the pest or weed control at 500 g/ha (barnyardgrass [3]; 500 g ai/ha, read-out: Barnyardgrass plant response rating)?
**A.** 100%

**Q.** What about the “Waterhemp plant response rating” value (waterhemp; [7]) of the same compound?
**A.** 85

**Q.** And the pest or weed control at 16 g/ha (waterhemp; Amaranthus tuberculatus, post-emergence, 16 g ai/ha, postemergence, 0 is no effect, 100 is complete control, read-out: Plant response rating (0 to 100), Waterhemp)?
**A.** 75%

**Q.** And the pest or weed control at 125 g/ha (waterhemp; Amaranthus tuberculatus, post-emergence, 125 g ai/ha, postemergence, visual rating, scale 0 to 100 (0 no effect, 100 complete control), read-out: Plant response rating, Waterhemp)?
**A.** 90%

**Q.** And the pest or weed control at 62 g/ha (waterhemp; Amaranthus tuberculatus, post-emergence, Postemergence, 62 g ai/ha, scale 0 to 100 (0 no effect, 100 complete control), read-out: Plant response rating, Waterhemp)?
**A.** 90%

**Q.** And the pest or weed control at 16 g/ha (galium; 16 g ai/ha, preemergence, scale 0 to 100 (0 no effect, 100 complete control), read-out: Galium plant response rating)?
**A.** 98%

**Q.** And the pest or weed control at 62 g/ha (galium; 62 g ai/ha, preemergence, scale 0 (no effect) to 100 (complete control), read-out: Galium plant response rating)?
**A.** 95%

**Q.** And the pest or weed control at 125 g/ha (galium; 125 g ai/ha, preemergence, scale 0 (no effect) to 100 (complete control), read-out: Galium plant response rating)?
**A.** 95%

**Q.** And the pest or weed control at 31 g/ha (galium; Preemergence, 31 g ai/ha, scale 0 to 100, 0 no effect, 100 complete control, read-out: Plant response rating, Galium)?
**A.** 100%

**Q.** And the “Velvetleaf plant response rating” value (velvetleaf [4]; [7])?
**A.** 55

**Q.** And the pest or weed control at 16 g/ha (velvetleaf [4]; Abutilon theophrasti, post-emergence, 16 g ai/ha, postemergence, 0 is no effect, 100 is complete control, read-out: Plant response rating (0 to 100), Velvetleaf)?
**A.** 45%

**Q.** What about the pest or weed control at 125 g/ha (velvetleaf [4]; Abutilon theophrasti, post-emergence, 125 g ai/ha, postemergence, visual rating, scale 0 to 100 (0 no effect, 100 complete control), read-out: Plant response rating, Velvetleaf) of the same compound?
**A.** 85%

**Q.** What about the pest or weed control at 62 g/ha (velvetleaf [4]; Abutilon theophrasti, post-emergence, Postemergence, 62 g ai/ha, scale 0 to 100 (0 no effect, 100 complete control), read-out: Plant response rating, Velvetleaf) of the same compound?
**A.** 80%

**Q.** What about the pest or weed control at 16 g/ha (large (Lg) crabgrass [5]; 16 g ai/ha, postemergence, 0 is no effect, 100 is complete control, read-out: Plant response rating (0 to 100), Crabgrass, Large) of the same compound?
**A.** 5%

**Q.** What about the pest or weed control at 31 g/ha (large (Lg) crabgrass [5]; 31 g ai/ha, postemergence, visual rating, scale 0 to 100 (0 no effect, 100 complete control), 13 to 15 days, read-out: Crabgrass, Large plant response rating) of the same compound?
**A.** 5%

**Q.** And the pest or weed control at 125 g/ha (large (Lg) crabgrass [5]; 125 g ai/ha, postemergence, visual rating, scale 0 to 100 (0 no effect, 100 complete control), read-out: Plant response rating, Crabgrass, Large)?
**A.** 15%

**Q.** And the pest or weed control at 62 g/ha (large (Lg) crabgrass [5]; Postemergence, 62 g ai/ha, scale 0 to 100 (0 no effect, 100 complete control), read-out: Plant response rating, Crabgrass, Large)?
**A.** 10%

**Q.** And the pest or weed control at 250 g/ha (sedge, umbrella)?
**A.** 95%

**Q.** And the pest or weed control at 16 g/ha (johnsongrass; [8])?
**A.** 5%

**Q.** And the pest or weed control at 62 g/ha (johnsongrass; [9])?
**A.** 85%

**Q.** What about the pest or weed control at 125 g/ha (johnsongrass; [10]) of the same compound?
**A.** 95%

**Q.** And the “Soybean plant response rating” value (soybean; [7])?
**A.** 95

**Q.** What about the Soybean plant response rating (crop injury, 0-100 scale) at 16 g/ha (soybean; Glycine max, post-emergence, 16 g ai/ha, postemergence, 0 is no effect, 100 is complete control) of the same compound?
**A.** 40%

**Q.** And the Soybean plant response rating (crop injury, 0-100 scale) at 125 g/ha (soybean; Glycine max, post-emergence, 125 g ai/ha, postemergence, visual rating, scale 0 to 100 (0 no effect, 100 complete control), read-out: Plant response rating, Soybean)?
**A.** 95%

**Q.** And the Soybean plant response rating (crop injury, 0-100 scale) at 62 g/ha (soybean; Glycine max, post-emergence, Postemergence, 62 g ai/ha, scale 0 to 100 (0 no effect, 100 complete control))?
**A.** 90%

**Q.** And the pest or weed control at 16 g/ha (velvetleaf [6]; [8])?
**A.** 80%

**Q.** And the pest or weed control at 62 g/ha (velvetleaf [6]; [9])?
**A.** 100%

**Q.** What about the pest or weed control at 125 g/ha (velvetleaf [6]; [10]) of the same compound?
**A.** 100%

**Q.** And the “Oilseed Rape plant response rating” value (oilseed rape; [7])?
**A.** 90

**Q.** And the plant injury at 16 g/ha (oilseed rape; Brassica napus, post-emergence, 16 g ai/ha, postemergence, 0 is no effect, 100 is complete control, read-out: Plant response rating (0 to 100), Oilseed Rape)?
**A.** 60%

**Q.** And the plant injury at 125 g/ha (oilseed rape; Brassica napus, post-emergence, 125 g ai/ha, postemergence, visual rating, scale 0 to 100 (0 no effect, 100 complete control), read-out: Plant response rating, Oilseed Rape)?
**A.** 98%

**Q.** What about the plant injury at 62 g/ha (oilseed rape; Brassica napus, post-emergence, Postemergence, 62 g ai/ha, scale 0 to 100 (0 no effect, 100 complete control), read-out: Plant response rating, Oilseed Rape) of the same compound?
**A.** 95%
